Source: the supplement of paper PMC10307832

Key:
Assay in all cases: relative viability (nuclei count vs DMSO), 5 days (fraction); higher = more cells survive
GW-2580 = compound: COC1=CC=C(C=C1)COC2=C(C=C(C=C2)CC3=CN=C(N=C3N)N)OC [GW-2580]
Outline: (§1)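 Following overnight incubation at 37 °C, lung cancer cell lines in 1536-well plates were pinned with five library-drug doses (not always all listed) in √10 steps on vehicle-anchored plates. The cells then spent 5 days without medium change before a combined fix, permeabilisation and Hoechst stain, 4× imaging and MetaXpress nuclear counts. Viability is the treated-to-vehicle ratio of nuclei, taken as the median across plates. Only plates with control CV below 25% and at least one doubling passed.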

Fedratinib = compound: Cc1cnc(Nc2ccc(OCCN3CCCC3)cc2)nc1Nc1cccc(S(=O)(=O)NC(C)(C)C)c1 [Fedratinib]
Outline: as §1

Fedratinib + Dasatinib = compound: Cc1cnc(Nc2ccc(OCCN3CCCC3)cc2)nc1Nc1cccc(S(=O)(=O)NC(C)(C)C)c1 [Fedratinib] + Cc1nc(Nc2ncc(C(=O)Nc3c(C)cccc3Cl)s2)cc(N2CCN(CCO)CC2)n1 [Dasatinib] (partner 0.075 µM)
Outline: (§2)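 Dosing by pin tool came one day after lung cancer cell lines were seeded in 1536-well plates, using either one drug or a fixed anchor-drug dose plus five library-drug doses (not always all listed) in √10 steps. After 5 days, nuclei were counted on 4× images. Relative viability is treated-well nuclei count divided by vehicle-well nuclei count, and values are medians of duplicate plates.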

GW-2580 + Alpelisib = compound: COC1=CC=C(C=C1)COC2=C(C=C(C=C2)CC3=CN=C(N=C3N)N)OC [GW-2580] + Cc1nc(NC(=O)N2CCC[C@H]2C(N)=O)sc1-c1ccnc(C(C)(C)C(F)(F)F)c1 [Alpelisib] (partner 2 µM)
Outline: as §2

Fedratinib + Pemetrexed = compound: Cc1cnc(Nc2ccc(OCCN3CCCC3)cc2)nc1Nc1cccc(S(=O)(=O)NC(C)(C)C)c1 [Fedratinib] + Nc1nc2[nH]cc(CCc3ccc(C(=O)N[C@@H](CCC(=O)O)C(=O)O)cc3)c2c(=O)[nH]1 [Pemetrexed] (partner 0.2 µM)
Outline: as §2

Cell Line	relative viability (GW-2580; 0.08 µM)	relative viability (GW-2580; 0.8 µM)	relative viability (GW-2580; 2.53 µM)	relative viability (GW-2580; 8 µM)	relative viability (Fedratinib; 0.1 µM)	relative viability (Fedratinib; 0.3162 µM)	relative viability (Fedratinib; 1 µM)	relative viability (Fedratinib + Dasatinib; first compound 0.1 µM)	relative viability (Fedratinib + Dasatinib; first compound 0.3162 µM)	relative viability (Fedratinib + Dasatinib; first compound 1 µM)	relative viability (GW-2580 + Alpelisib; first compound 0.08 µM)	relative viability (GW-2580 + Alpelisib; first compound 0.8 µM)	relative viability (GW-2580 + Alpelisib; first compound 2.53 µM)	relative viability (GW-2580 + Alpelisib; first compound 8 µM)	relative viability (Fedratinib + Pemetrexed; first compound 0.1 µM)	relative viability (Fedratinib + Pemetrexed; first compound 0.3162 µM)	relative viability (Fedratinib + Pemetrexed; first compound 1 µM)
EKVX	0.962	1.22	0.81	0.941	1.06	0.952	0.978	0.498	0.681	0.532	0.898	1.02	0.91	0.874	0.377	0.431	0.392
EMC-BAC-2	1.02	1.12	0.643	0.901	1.1	1.01	0.833	0.289	0.362	0.285	0.834	0.777	0.686	0.787	0.425	0.481	0.39
EPLC-272H	0.995	1.15	0.763	0.891	0.921	0.938	0.327	0.364	0.345	0.0536	0.996	1.08	0.904	0.98	0.389	0.272	0.343
H3255	0.954	1.2	0.894	0.85	0.963	0.923	0.86	0.397	0.345	0.293	0.659	0.846	0.686	0.676	0.531	0.559	0.563
HARA	1.11	1.16	0.951	0.902	0.863	0.903	0.803	0.217	0.155	0.24	0.958	0.927	0.578	0.8	0.253	0.259	0.185
HCC-15	1.08	1.19	0.98	1.02	0.869	0.972	0.911	0.508	0.58	0.337	0.915	0.894	0.87	0.82	0.212	0.225	0.202
HCC-78	0.95	1.21	0.675	0.933	0.87	0.869	0.96	0.384	0.309	0.306	0.368	0.363	0.28	0.304	0.963	0.838	0.881
HCC-366	0.997	1.06	1.11	1.07	0.997	1.02	0.962	0.601	0.595	0.428	0.367	0.575	0.43	0.355	0.154	0.168	0.142
HCC-827	1.06	1.05	1.04	0.965	1.07	1.01	1.03	0.249	0.344	0.298	1.15	0.923	0.902	0.915	0.233	0.271	0.256
HOP-62	1.06	1.12	0.982	1.03	1.01	0.907	0.987	0.739	0.6	0.503	0.914	1.01	0.694	1.07	0.26	0.244	0.322
LC-2-ad	1.04	1.14	1.01	0.988	0.983	1.03	0.588	0.702	0.636	0.266	0.934	0.932	0.875	0.87	0.284	0.267	0.277
LCLC-97TM1	0.972	1.07	0.848	1.03	1.05	1.02	0.778	0.822	0.831	0.723	0.233	–	0.189	0.226	0.204	0.151	0.169
LCLC-103H	0.999	0.909	0.977	0.927	0.952	1	0.932	0.492	0.294	0.511	0.928	1.11	0.961	0.954	0.487	0.521	0.469
LK-2	1.18	0.988	0.742	1.02	1.09	1.03	0.734	0.206	0.227	0.168	1.21	1.21	0.849	1.38	0.171	0.207	0.233
LOU-NH91	0.987	1.05	0.843	0.973	0.893	1.08	0.723	0.518	0.518	0.557	0.677	0.756	0.635	0.688	0.43	0.351	0.399
LU99A	0.991	0.875	0.949	0.916	0.969	0.934	0.924	0.494	0.508	0.42	0.496	0.522	0.354	0.528	0.181	0.174	0.197
LXF-289	1.03	1.08	0.988	0.937	0.978	0.997	0.974	0.249	0.158	0.203	1.07	1.09	0.998	0.907	0.89	0.872	0.884
NCI-H23	1.03	1.11	0.983	0.99	1.01	0.908	0.597	0.805	0.415	0.911	0.76	0.735	0.512	0.749	0.681	0.59	0.497
